Test results as given in PubChem BioAssay (NCI).
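Interpolation was linear, between the two tested concentrations surrounding the appropriate level; five concentrations were tested over 48 hours in 96-well plates. GI50 marks 50% less growth. TGI: total growth inhibition.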

What was measured:
Experiment in all cases: DTP human tumour cell line panel, 48 h
786-0 renal = tested on: 786-0 renal
A498 renal = tested on: A498 renal
A549 NSCLC = tested on: A549 NSCLC
ACHN renal = tested on: ACHN renal
BT-549 breast = tested on: BT-549 breast
CAKI-1 renal = tested on: CAKI-1 renal
CCRF-CEM leukemia = tested on: CCRF-CEM leukemia
COLO 205 colon = tested on: COLO 205 colon
DU-145 prostate = tested on: DU-145 prostate
EKVX NSCLC = tested on: EKVX NSCLC
HCC-2998 colon = tested on: HCC-2998 colon
HCT-116 colon = tested on: HCT-116 colon
HCT-15 colon = tested on: HCT-15 colon
HL-60(TB) leukemia = tested on: HL-60(TB) leukemia
HOP-62 NSCLC = tested on: HOP-62 NSCLC
HOP-92 NSCLC = tested on: HOP-92 NSCLC
HS 578T breast = tested on: HS 578T breast
HT29 colon = tested on: HT29 colon
IGROV1 ovarian = tested on: IGROV1 ovarian
K-562 leukemia = tested on: K-562 leukemia
KM12 colon = tested on: KM12 colon
LOX IMVI melanoma = tested on: LOX IMVI melanoma
M14 melanoma = tested on: M14 melanoma
MALME-3M melanoma = tested on: MALME-3M melanoma
MCF7 breast = tested on: MCF7 breast
MDA-MB-231 breast = tested on: MDA-MB-231 breast
MDA-MB-435 = tested on: MDA-MB-435
MOLT-4 leukemia = tested on: MOLT-4 leukemia
NCI-H226 lung = tested on: NCI-H226 lung
NCI-H23 lung = tested on: NCI-H23 lung
NCI-H460 lung = tested on: NCI-H460 lung
NCI-H522 lung = tested on: NCI-H522 lung
NCI/ADR-RES ovarian = tested on: NCI/ADR-RES ovarian
OVCAR-3 ovarian = tested on: OVCAR-3 ovarian
OVCAR-4 ovarian = tested on: OVCAR-4 ovarian
OVCAR-5 ovarian = tested on: OVCAR-5 ovarian
OVCAR-8 ovarian = tested on: OVCAR-8 ovarian
PC-3 prostate = tested on: PC-3 prostate
RPMI-8226 leukemia = tested on: RPMI-8226 leukemia
RXF 393 renal = tested on: RXF 393 renal
SF-268 CNS = tested on: SF-268 CNS
SF-295 CNS = tested on: SF-295 CNS
SF-539 CNS = tested on: SF-539 CNS
SK-MEL-2 melanoma = tested on: SK-MEL-2 melanoma
SK-MEL-28 melanoma = tested on: SK-MEL-28 melanoma
SK-MEL-5 melanoma = tested on: SK-MEL-5 melanoma
SK-OV-3 ovarian = tested on: SK-OV-3 ovarian
SN12C renal = tested on: SN12C renal
SNB-19 CNS = tested on: SNB-19 CNS
SNB-75 CNS = tested on: SNB-75 CNS
SR leukemia = tested on: SR leukemia
SW-620 colon = tested on: SW-620 colon
T-47D breast = tested on: T-47D breast
TK-10 renal = tested on: TK-10 renal
U251 CNS = tested on: U251 CNS
UACC-257 melanoma = tested on: UACC-257 melanoma
UACC-62 melanoma = tested on: UACC-62 melanoma
UO-31 renal = tested on: UO-31 renal

COc1cc2ncnc(Nc3ccc4c(cnn4Cc4ccccc4)c3)c2cc1OC
GI50 (786-0 renal): 16.7 µM
TGI (786-0 renal): > 25 µM
GI50 (A498 renal): > 18.6 µM
TGI (A498 renal): > 25 µM
GI50 (A549 NSCLC): > 17.9 µM
TGI (A549 NSCLC): > 25 µM
GI50 (ACHN renal): 0.642 µM
TGI (ACHN renal): > 25 µM
GI50 (BT-549 breast): 16.5 µM
TGI (BT-549 breast): > 25 µM
GI50 (CAKI-1 renal): 0.385 µM
TGI (CAKI-1 renal): > 25 µM
GI50 (CCRF-CEM leukemia): > 18.1 µM
TGI (CCRF-CEM leukemia): > 25 µM
GI50 (COLO 205 colon): > 25 µM
TGI (COLO 205 colon): > 25 µM
GI50 (DU-145 prostate): > 25 µM
TGI (DU-145 prostate): > 25 µM
GI50 (EKVX NSCLC): 0.0796 µM
TGI (EKVX NSCLC): > 25 µM
GI50 (HCC-2998 colon): > 25 µM
TGI (HCC-2998 colon): > 25 µM
GI50 (HCT-116 colon): > 21.3 µM
TGI (HCT-116 colon): > 25 µM
GI50 (HCT-15 colon): > 17.4 µM
TGI (HCT-15 colon): > 25 µM
GI50 (HL-60(TB) leukemia): 12.5 µM
TGI (HL-60(TB) leukemia): > 21 µM
GI50 (HOP-62 NSCLC): > 25 µM
TGI (HOP-62 NSCLC): > 25 µM
GI50 (HOP-92 NSCLC): 0.434 µM
TGI (HOP-92 NSCLC): > 25 µM
GI50 (HS 578T breast): > 21 µM
TGI (HS 578T breast): > 25 µM
GI50 (HT29 colon): 8.77 µM
TGI (HT29 colon): > 25 µM
GI50 (IGROV1 ovarian): 4.83 µM
TGI (IGROV1 ovarian): > 25 µM
GI50 (K-562 leukemia): 7.27 µM
TGI (K-562 leukemia): > 19.7 µM
GI50 (KM12 colon): 18.7 µM
TGI (KM12 colon): > 25 µM
GI50 (LOX IMVI melanoma): > 19.4 µM
TGI (LOX IMVI melanoma): > 25 µM
GI50 (M14 melanoma): > 25 µM
TGI (M14 melanoma): > 25 µM
GI50 (MALME-3M melanoma): > 25 µM
TGI (MALME-3M melanoma): > 25 µM
GI50 (MCF7 breast): > 25 µM
TGI (MCF7 breast): > 25 µM
GI50 (MDA-MB-231 breast): 7.13 µM
TGI (MDA-MB-231 breast): > 25 µM
GI50 (MDA-MB-435): > 25 µM
TGI (MDA-MB-435): > 25 µM
GI50 (MOLT-4 leukemia): 13.5 µM
TGI (MOLT-4 leukemia): > 25 µM
GI50 (NCI-H226 lung): > 25 µM
TGI (NCI-H226 lung): > 25 µM
GI50 (NCI-H23 lung): > 25 µM
TGI (NCI-H23 lung): > 25 µM
GI50 (NCI-H460 lung): > 25 µM
TGI (NCI-H460 lung): > 25 µM
GI50 (NCI-H522 lung): 0.724 µM
TGI (NCI-H522 lung): > 25 µM
GI50 (NCI/ADR-RES ovarian): > 19.5 µM
TGI (NCI/ADR-RES ovarian): > 25 µM
GI50 (OVCAR-3 ovarian): 15.1 µM
TGI (OVCAR-3 ovarian): > 25 µM
GI50 (OVCAR-4 ovarian): > 25 µM
TGI (OVCAR-4 ovarian): > 25 µM
GI50 (OVCAR-5 ovarian): > 25 µM
TGI (OVCAR-5 ovarian): > 25 µM
GI50 (OVCAR-8 ovarian): > 17.5 µM
TGI (OVCAR-8 ovarian): > 25 µM
GI50 (PC-3 prostate): > 18.2 µM
TGI (PC-3 prostate): > 25 µM
GI50 (RPMI-8226 leukemia): 11.2 µM
TGI (RPMI-8226 leukemia): > 25 µM
GI50 (RXF 393 renal): 8.92 µM
TGI (RXF 393 renal): > 25 µM
GI50 (SF-268 CNS): > 25 µM
TGI (SF-268 CNS): > 25 µM
GI50 (SF-295 CNS): > 20.2 µM
TGI (SF-295 CNS): > 25 µM
GI50 (SF-539 CNS): > 15.8 µM
TGI (SF-539 CNS): > 25 µM
GI50 (SK-MEL-2 melanoma): > 25 µM
TGI (SK-MEL-2 melanoma): > 25 µM
GI50 (SK-MEL-28 melanoma): > 25 µM
TGI (SK-MEL-28 melanoma): > 25 µM
GI50 (SK-MEL-5 melanoma): > 17.5 µM
TGI (SK-MEL-5 melanoma): > 25 µM
GI50 (SK-OV-3 ovarian): 0.534 µM
TGI (SK-OV-3 ovarian): > 25 µM
GI50 (SN12C renal): > 17 µM
TGI (SN12C renal): > 25 µM
GI50 (SNB-19 CNS): > 25 µM
TGI (SNB-19 CNS): > 25 µM
GI50 (SNB-75 CNS): > 25 µM
TGI (SNB-75 CNS): > 25 µM
GI50 (SR leukemia): 24.9 µM
TGI (SR leukemia): > 25 µM
GI50 (SW-620 colon): > 25 µM
TGI (SW-620 colon): > 25 µM
GI50 (T-47D breast): 2.16 µM
TGI (T-47D breast): > 25 µM
GI50 (TK-10 renal): 0.131 µM
TGI (TK-10 renal): > 25 µM
GI50 (U251 CNS): > 19.2 µM
TGI (U251 CNS): > 25 µM
GI50 (UACC-257 melanoma): > 25 µM
TGI (UACC-257 melanoma): > 25 µM
GI50 (UACC-62 melanoma): > 25 µM
TGI (UACC-62 melanoma): > 25 µM
GI50 (UO-31 renal): 3.96 µM
TGI (UO-31 renal): > 25 µM
